≈ marks a conversion by molar mass, not a printed value. Counter-ions that a name gives are not always drawn. Like-named read-outs stand apart in the source and are kept apart here.
Experiments:
[1] = system: Influenza A/WSN/33 (H1N1); assay: microbe, parasite or virus in culture; type: cell-based, Influenza A virus; conditions: for EC50: read-out: H1N1 WSN EC50
H1N1 WSN viral strain = system: H1N1 WSN viral strain; set-up: species or system BALB/c mice; conditions: mouse, in vivo, po
influenza virus (H3N2) = assay: organism not typed; type: cell-based, Influenza A virus; conditions: for EC50: read-out: H3N2 EC50
influenza virus (H1N1) = assay: organism not typed; type: cell-based, Influenza A virus

How did the “Minimal Inhibitory Concentration (MIC), WSN” value ([1]; hydrochloride) turn out when COc1c(C)c2c(c(O)c1C/C=C(\C)CCC(=O)OCCN1CCOCC1)C(=O)OC2 [MPM-N, mycophenolate mofetil hydrochloride] was run?
The value was 0.0488 mg/L.

And the “survival rate of mice” value (H1N1 WSN viral strain)?
The value was 23.3%.

What does the source list for CCOC(=O)C1=C[C@@H](OC(CC)CC)[C@H](NC(C)=O)[C@@H](N)C1 [Tamiflu]?
survival rate of mice (H1N1 WSN viral strain): 100%; survival rate of mice (H1N1 WSN viral strain; 0.1 mg/kg): 46.7%

NC(=O)c1ncn([C@@H]2O[C@H](CO)[C@@H](O)[C@H]2O)n1 [Ribavirin, reference compound] was tested. Which EC50 (influenza virus (H3N2)) did it give?
The EC50 was 12.5 mg/L (≈ 51.2 µM).

And the EC50 ([1]; Influenza A virus)?
The EC50 was 3.12 mg/L (≈ 12.8 µM).

What does the source list for COc1c(C)c2c(c(O)c1C/C=C(\C)CCC(=O)OCCN1CCOCC1)C(=O)OC2 [MPM, 2-morpholinoethyl(E)-6-(1,3-dihydro-4-hydroxy-6-methoxy-7-methyl-3-oxo-5-isobenzofuranyl)-4-methyl-4-hexenoate]?
survival rate in MDCK cells (influenza virus (H1N1)): 75%; MIC (influenza virus (H1N1); read-out: Minimal Inhibitory Concentration (MIC), H1N1): 0.195 mg/L (≈ 0.45 µM); EC50 (influenza virus (H3N2)): 1.56 mg/L (≈ 3.6 µM); MIC (influenza virus (H3N2); read-out: Minimal Inhibitory Concentration (MIC), H3N2): 1.56 mg/L (≈ 3.6 µM); antiviral activity against WSN influenza virus [1]: active; cell survival (MTT), D + V [1]: ++++ (key: 0˜25% cell survival is recorded as +/−; 25˜50% cell survival is recorded as +; 50˜75% cell survival is recorded as ++; 75˜100% cell survival is recorded as +++; >100% cell survival is recorded as ++++); EC50 ([1]; Influenza A virus): 0.098 mg/L (≈ 0.226 µM); MIC ([1]; Influenza A virus, read-out: Minimal Inhibitory Concentration (MIC), WSN): 0.097 mg/L (≈ 0.224 µM); toxicity to cells (MDCK cells): nontoxic to cells
